Measured values from ChEMBL document CHEMBL5678816, “A Next-Generation TRK Kinase Inhibitor Overcomes Acquired Resistance to Prior TRK Kinase Inhibition in Patients with TRK Fusion-Positive Solid Tumors” (Cancer Discov, 2017).
Calls of active or inactive are those of the source. No cut-off for these calls is given here.

Assays:
[1] = Clearance in rat at 1 mg/kg, iv administered as 20% hydroxypropyl-beta-cyclodextrin formulation by LC-MS analysis; assay type: ADME, organism-based; settings: in vivo
[2] = Inhibition of N-terminal 3FLAG-tagged ETV6-TRKC G623R mutant (unknown origin) expressed in NIH3T3 cells assessed as ERK1/2 phosphorylation incubated for 1 hrs by flow cytometric analysis; assay type: cell-based, Homo sapiens
NIH3T3 = test: In vivo inhibition of […] in nu/nu NCr mouse implanted with mouse NIH3T3 cells harboring extracellular domain deleted […] G595R mutant assessed as reduction in […] phosphorylation administered orally twice daily for 3 days and measured after 2 hrs post last dose by ELISA; assay type: functional; settings: dose 10-100 mg/kg, route po, time 3.0 day
KM12 = test: Antitumor activity against human KM12 cells harboring TPM3-TRKA fusion protein xenografted in nu/nu NCr mouse assessed as inhibition of tumor growth at 30 to 300 mg/kg, po administered twice daily for 11 days; assay type: functional, organism-based; settings: dose 30-300 mg/kg, time 11.0 day
SH-4 = test: Inhibition of cell proliferation in human SH-4 cells upto 10 umol/L incubated for 72 hrs by DAPI staining based analysis; assay type: functional; settings: dose <= 10.0 µmol/L
D283 Med = test: Inhibition of cell proliferation in human D283 Med cells upto 10 umol/L incubated for 72 hrs by DAPI staining based analysis; assay type: functional; settings: dose <= 10.0 µmol/L
MDA-MB-453 = test: Inhibition of cell proliferation in human MDA-MB-453 cells upto 10 umol/L incubated for 72 hrs by DAPI staining based analysis; assay type: functional; settings: dose <= 10.0 µmol/L
MDA-MB-468 = test: Inhibition of cell proliferation in human MDA-MB-468 cells upto 10 umol/L incubated for 72 hrs by DAPI staining based analysis; assay type: functional; settings: dose <= 10.0 µmol/L
SNB-19 = test: Inhibition of cell proliferation in human SNB-19 cells upto 10 umol/L incubated for 72 hrs by DAPI staining based analysis; assay type: functional; settings: dose <= 10.0 µmol/L
HEL 92.1.7 = test: Inhibition of cell proliferation in human HEL 92.1.7 cells upto 10 umol/L incubated for 72 hrs by DAPI staining based analysis; assay type: functional; settings: dose <= 10.0 µmol/L
NCI-H661 = test: Inhibition of cell proliferation in human NCI-H661 cells upto 10 umol/L incubated for 72 hrs by DAPI staining based analysis; assay type: functional; settings: dose <= 10.0 µmol/L
SCC-4 = test: Inhibition of cell proliferation in human SCC-4 cells upto 10 umol/L incubated for 72 hrs by DAPI staining based analysis; assay type: functional; settings: dose <= 10.0 µmol/L
UMUC3 = test: Inhibition of cell proliferation in human UMUC3 cells upto 10 umol/L incubated for 72 hrs by DAPI staining based analysis; assay type: functional; settings: dose <= 10.0 µmol/L
CHL-1 = test: Inhibition of cell proliferation in human CHL-1 cells upto 10 umol/L incubated for 72 hrs by DAPI staining based analysis; assay type: functional; settings: dose <= 10.0 µmol/L
[3] = Cmin in pediatric patient with recurrent ETV6-NTRK3-rearranged infantile fibrosarcoma at 60 mg administered twice a day as liquid formulation for 8 day and measured 12 hrs post dose by LC-MS/MS analysis; assay type: ADME; settings: human, in vivo, read-out: Cmin
[4] = biological target: ALK tyrosine kinase receptor (Homo sapiens) (UniProt Q9UM73); test: Inhibition of ALK (unknown origin) at 1 uM in presence of ATP relative to control; values are per cent of control
ALK tyrosine kinase receptor (Homo sapiens), sequence (Q9UM73 19-1620 limits assumed): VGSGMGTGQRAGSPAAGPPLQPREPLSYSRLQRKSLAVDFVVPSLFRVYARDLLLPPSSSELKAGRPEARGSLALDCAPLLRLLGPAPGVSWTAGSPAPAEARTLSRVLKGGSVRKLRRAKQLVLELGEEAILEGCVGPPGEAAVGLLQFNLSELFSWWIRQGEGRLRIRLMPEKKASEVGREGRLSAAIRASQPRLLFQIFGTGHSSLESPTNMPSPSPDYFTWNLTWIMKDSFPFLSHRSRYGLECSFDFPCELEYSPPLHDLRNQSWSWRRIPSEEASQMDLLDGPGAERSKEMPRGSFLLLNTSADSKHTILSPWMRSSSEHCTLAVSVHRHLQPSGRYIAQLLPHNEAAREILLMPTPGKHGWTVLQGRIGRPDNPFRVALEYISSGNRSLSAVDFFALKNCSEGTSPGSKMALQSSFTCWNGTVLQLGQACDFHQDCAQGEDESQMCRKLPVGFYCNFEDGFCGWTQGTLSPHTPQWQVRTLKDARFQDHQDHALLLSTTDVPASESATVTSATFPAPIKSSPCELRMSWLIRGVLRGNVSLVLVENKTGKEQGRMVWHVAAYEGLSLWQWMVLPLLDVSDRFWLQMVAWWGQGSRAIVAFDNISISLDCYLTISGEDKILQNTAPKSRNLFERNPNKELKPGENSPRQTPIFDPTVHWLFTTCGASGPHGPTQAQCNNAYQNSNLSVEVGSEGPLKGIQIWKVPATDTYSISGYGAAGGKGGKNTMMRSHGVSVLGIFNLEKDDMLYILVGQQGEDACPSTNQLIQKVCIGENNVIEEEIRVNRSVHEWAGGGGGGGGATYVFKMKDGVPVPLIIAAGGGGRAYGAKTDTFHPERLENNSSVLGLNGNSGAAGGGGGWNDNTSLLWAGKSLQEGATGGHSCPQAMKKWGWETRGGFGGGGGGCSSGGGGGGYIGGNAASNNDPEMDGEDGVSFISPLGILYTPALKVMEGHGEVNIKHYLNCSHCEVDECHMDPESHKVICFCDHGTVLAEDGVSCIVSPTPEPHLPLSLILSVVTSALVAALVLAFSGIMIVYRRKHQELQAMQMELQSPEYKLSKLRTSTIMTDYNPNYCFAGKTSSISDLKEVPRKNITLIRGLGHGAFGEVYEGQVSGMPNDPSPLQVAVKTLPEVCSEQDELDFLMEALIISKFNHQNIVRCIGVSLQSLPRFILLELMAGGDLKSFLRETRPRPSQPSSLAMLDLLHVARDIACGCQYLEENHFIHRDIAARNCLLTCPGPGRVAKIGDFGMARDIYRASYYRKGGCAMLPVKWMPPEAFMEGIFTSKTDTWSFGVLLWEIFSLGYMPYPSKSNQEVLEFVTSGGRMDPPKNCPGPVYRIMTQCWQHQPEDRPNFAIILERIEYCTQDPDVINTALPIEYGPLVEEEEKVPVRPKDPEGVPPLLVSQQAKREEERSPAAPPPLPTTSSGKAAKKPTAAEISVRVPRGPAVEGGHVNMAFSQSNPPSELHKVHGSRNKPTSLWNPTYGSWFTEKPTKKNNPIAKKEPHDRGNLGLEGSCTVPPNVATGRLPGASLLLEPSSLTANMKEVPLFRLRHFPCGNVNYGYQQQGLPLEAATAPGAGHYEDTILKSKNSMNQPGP

[5] = biological target: Tyrosine-protein kinase BTK (Homo sapiens) (UniProt Q06187); test: Inhibition of BTK (unknown origin) at 1 uM in presence of ATP relative to control; values are per cent of control
[6] = biological target: Tyrosine-protein kinase Fyn (Homo sapiens) (UniProt P06241); test: Inhibition of Fyn (unknown origin) at 1 uM in presence of ATP relative to control; values are per cent of control
Tyrosine-protein kinase Fyn (Homo sapiens), sequence (P06241 2-537 limits assumed): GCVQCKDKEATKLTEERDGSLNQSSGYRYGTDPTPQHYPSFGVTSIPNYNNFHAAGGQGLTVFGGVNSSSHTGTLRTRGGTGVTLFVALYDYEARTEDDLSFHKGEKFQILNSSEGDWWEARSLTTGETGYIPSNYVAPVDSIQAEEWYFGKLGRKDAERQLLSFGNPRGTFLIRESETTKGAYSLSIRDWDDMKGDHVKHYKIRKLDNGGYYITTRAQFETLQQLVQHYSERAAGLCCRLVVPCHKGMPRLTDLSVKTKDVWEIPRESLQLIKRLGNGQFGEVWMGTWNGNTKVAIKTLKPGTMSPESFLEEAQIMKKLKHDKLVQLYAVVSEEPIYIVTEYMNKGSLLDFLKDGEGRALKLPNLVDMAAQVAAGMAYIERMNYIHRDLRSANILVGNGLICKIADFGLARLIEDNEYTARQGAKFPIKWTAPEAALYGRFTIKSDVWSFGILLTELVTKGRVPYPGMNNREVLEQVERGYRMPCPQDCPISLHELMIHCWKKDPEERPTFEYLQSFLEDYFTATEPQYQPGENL

[7] = biological target: Proto-oncogene tyrosine-protein kinase receptor Ret (Homo sapiens) (UniProt P07949); test: Inhibition of Ret (unknown origin) at 1 uM in presence of ATP relative to control; values are per cent of control
[8] = biological target: [Pyruvate dehydrogenase (acetyl-transferring)] kinase isozyme 1, mitochondrial (Homo sapiens) (UniProt Q15118); test: Inhibition of PDK1 (unknown origin) at 1 uM in presence of ATP relative to control; values are per cent of control
[9] = biological target: Serine/threonine-protein kinase N2 (Homo sapiens) (UniProt Q16513); test: Inhibition of PRK2 (unknown origin) at 1 uM in presence of ATP relative to control; values are per cent of control
[10] = biological target: Serine/threonine-protein kinase mTOR (Homo sapiens) (UniProt P42345); test: Inhibition of MTOR (unknown origin) at 1 uM in presence of ATP relative to control; values are per cent of control
[11] = biological target: Serine/threonine-protein kinase VRK2 (Homo sapiens) (UniProt Q86Y07); test: Inhibition of VRK2 (unknown origin) at 1 uM in presence of ATP relative to control; values are per cent of control
Serine/threonine-protein kinase VRK2 (Homo sapiens), sequence (Q86Y07 whole entry): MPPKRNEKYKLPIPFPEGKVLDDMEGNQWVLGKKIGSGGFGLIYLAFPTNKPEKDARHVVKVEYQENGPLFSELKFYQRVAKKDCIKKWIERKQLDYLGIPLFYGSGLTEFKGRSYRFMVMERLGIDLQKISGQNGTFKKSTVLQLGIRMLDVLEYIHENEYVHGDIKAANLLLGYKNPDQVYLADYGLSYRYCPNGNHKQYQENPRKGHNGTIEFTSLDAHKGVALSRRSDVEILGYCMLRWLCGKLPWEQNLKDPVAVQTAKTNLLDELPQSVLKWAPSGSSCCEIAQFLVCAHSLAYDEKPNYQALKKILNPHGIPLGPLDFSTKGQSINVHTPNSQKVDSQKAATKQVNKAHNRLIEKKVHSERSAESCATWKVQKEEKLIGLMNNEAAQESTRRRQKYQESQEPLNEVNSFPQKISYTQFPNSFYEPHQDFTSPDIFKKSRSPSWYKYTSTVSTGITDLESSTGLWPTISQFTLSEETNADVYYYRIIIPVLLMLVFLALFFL

[12] = biological target: Dual specificity mitogen-activated protein kinase kinase 7 (Homo sapiens) (UniProt O14733); test: Inhibition of MKK7 (unknown origin) at 1 uM in presence of ATP relative to control; values are per cent of control
Dual specificity mitogen-activated protein kinase kinase 7 (Homo sapiens), sequence (O14733 whole entry): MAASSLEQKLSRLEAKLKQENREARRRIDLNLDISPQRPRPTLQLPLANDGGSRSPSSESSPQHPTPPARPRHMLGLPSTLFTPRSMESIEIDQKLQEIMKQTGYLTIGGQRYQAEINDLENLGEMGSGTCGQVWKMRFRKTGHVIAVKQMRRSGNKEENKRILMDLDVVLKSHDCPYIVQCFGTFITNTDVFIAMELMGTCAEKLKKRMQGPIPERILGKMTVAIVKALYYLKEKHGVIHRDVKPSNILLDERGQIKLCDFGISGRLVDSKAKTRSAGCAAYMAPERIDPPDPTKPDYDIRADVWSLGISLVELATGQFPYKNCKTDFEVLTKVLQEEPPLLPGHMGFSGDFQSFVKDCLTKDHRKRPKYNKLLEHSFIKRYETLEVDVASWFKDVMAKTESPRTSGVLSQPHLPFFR

[13] = biological target: Vascular endothelial growth factor receptor 1 (Homo sapiens) (UniProt P17948); test: Inhibition of FLt1 (unknown origin) at 1 uM in presence of ATP relative to control; values are per cent of control
[14] = biological target: Vascular endothelial growth factor receptor 3 (Homo sapiens) (UniProt P35916); test: Inhibition of FLt4 (unknown origin) at 1 uM in presence of ATP relative to control; values are per cent of control
Vascular endothelial growth factor receptor 3 (Homo sapiens), sequence (P35916 whole entry): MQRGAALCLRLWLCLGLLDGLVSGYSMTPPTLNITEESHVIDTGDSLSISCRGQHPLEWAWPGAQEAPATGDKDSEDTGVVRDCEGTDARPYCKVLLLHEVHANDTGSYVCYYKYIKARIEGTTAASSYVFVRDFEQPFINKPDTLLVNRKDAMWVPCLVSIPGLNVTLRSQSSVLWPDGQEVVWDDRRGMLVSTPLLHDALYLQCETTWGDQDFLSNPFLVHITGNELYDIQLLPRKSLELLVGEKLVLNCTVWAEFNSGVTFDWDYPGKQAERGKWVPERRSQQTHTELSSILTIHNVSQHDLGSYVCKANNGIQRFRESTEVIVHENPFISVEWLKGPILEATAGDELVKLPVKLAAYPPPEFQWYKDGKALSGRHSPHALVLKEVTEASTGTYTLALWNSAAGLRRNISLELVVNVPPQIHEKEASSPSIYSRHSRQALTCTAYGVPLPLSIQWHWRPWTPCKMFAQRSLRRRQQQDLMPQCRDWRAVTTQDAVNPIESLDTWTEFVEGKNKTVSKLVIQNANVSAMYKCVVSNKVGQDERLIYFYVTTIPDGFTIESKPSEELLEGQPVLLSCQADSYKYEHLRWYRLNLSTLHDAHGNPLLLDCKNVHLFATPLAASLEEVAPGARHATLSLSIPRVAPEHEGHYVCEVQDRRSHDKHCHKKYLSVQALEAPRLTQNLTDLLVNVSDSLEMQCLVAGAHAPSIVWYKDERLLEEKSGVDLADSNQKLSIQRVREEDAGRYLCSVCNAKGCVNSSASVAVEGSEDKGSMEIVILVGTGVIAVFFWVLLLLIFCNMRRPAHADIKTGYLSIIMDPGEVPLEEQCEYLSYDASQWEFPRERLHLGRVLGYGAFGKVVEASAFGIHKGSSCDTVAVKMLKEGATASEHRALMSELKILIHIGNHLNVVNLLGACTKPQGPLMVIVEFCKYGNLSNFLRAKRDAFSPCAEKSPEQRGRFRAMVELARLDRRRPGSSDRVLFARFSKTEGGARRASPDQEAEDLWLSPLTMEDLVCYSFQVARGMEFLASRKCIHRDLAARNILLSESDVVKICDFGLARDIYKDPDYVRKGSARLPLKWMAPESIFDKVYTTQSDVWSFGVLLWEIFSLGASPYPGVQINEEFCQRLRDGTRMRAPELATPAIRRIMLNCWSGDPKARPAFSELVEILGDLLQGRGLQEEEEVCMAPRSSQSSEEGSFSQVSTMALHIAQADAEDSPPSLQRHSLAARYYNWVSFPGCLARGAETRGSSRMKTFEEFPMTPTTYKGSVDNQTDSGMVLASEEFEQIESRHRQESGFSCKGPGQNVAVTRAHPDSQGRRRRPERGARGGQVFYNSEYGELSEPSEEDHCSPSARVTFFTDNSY

[15] = biological target: Dual specificity tyrosine-phosphorylation-regulated kinase 2 (Homo sapiens) (UniProt Q92630); test: Inhibition of DYRK2 (unknown origin) at 1 uM in presence of ATP relative to control; values are per cent of control
Dual specificity tyrosine-phosphorylation-regulated kinase 2 (Homo sapiens), sequence (Q92630 whole entry): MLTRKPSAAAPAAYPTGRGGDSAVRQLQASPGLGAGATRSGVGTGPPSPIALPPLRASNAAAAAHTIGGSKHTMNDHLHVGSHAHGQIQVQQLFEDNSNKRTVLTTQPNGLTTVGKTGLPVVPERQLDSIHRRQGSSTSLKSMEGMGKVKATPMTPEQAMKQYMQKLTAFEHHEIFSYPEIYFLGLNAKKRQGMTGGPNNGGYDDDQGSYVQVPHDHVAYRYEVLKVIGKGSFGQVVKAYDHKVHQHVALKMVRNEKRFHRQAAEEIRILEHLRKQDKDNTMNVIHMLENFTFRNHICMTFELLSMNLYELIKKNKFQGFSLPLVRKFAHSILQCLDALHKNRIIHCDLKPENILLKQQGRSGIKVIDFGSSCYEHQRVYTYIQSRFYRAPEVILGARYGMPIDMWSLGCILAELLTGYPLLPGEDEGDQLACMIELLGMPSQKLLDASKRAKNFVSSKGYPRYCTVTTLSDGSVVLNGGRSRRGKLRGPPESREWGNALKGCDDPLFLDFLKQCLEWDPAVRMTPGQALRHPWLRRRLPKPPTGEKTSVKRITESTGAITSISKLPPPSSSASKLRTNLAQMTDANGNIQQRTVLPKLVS

[16] = biological target: Insulin-like growth factor 1 receptor (Homo sapiens) (UniProt P08069); test: Inhibition of IGF-1R (unknown origin) at 1 uM in presence of ATP relative to control; values are per cent of control
[17] = biological target: Mitogen-activated protein kinase 11 (Homo sapiens) (UniProt Q15759); test: Inhibition of p38beta (unknown origin) at 1 uM in presence of ATP relative to control; values are per cent of control
[18] = biological target: Protein kinase C theta type (Homo sapiens) (UniProt Q04759); test: Inhibition of PKCtheta (unknown origin) at 1 uM in presence of ATP relative to control; values are per cent of control

- clearance [1]: 5.83 mL/min/kg
- IC50 [2]: 0.0455 µM
- concentration at 204 h [3]: < 1 ng/mL
- residual activity [4]: 50%
- residual activity [5]: 87%
- residual activity [6]: 90.5%
- residual activity [7]: 80.5%
- residual activity [8]: 101%
- residual activity [9]: 100%
- residual activity [10]: 95%
- residual activity [11]: 98%
- residual activity [12]: 115%
- residual activity [13]: 101%
- residual activity [14]: 90%
- residual activity [15]: 102%
- residual activity [16]: 96%
- residual activity [17]: 123%
- residual activity [18]: 108%
Compound: C[C@@H]1CCc2ncc(F)cc2[C@H]2CCCN2c2ccn3ncc(c3n2)C(=O)N1 [SELITRECTINIB]
- inhibition (NIH3T3): Dose-Dependent Effect
- Activity (KM12): Active
- inhibition (SH-4): inactive
- inhibition (D283 Med): inactive
- inhibition (MDA-MB-453): inactive
- inhibition (MDA-MB-468): inactive
- inhibition (SNB-19): inactive
- inhibition (HEL 92.1.7): inactive
- inhibition (NCI-H661): inactive
- inhibition (SCC-4): inactive
- inhibition (UMUC3): inactive
- inhibition (CHL-1): inactive
